One assay addresses human MEK1 (Homo sapiens, UniProt Q02750, S218E/S222E). Briefly: MEK-1 Enzyme Assay (LANCE-HTRF). The class given is biochemical. The following applies: MEK-1 EE, ERK-2K52A substrate, 9 uM ATP, 1.5 hrs. The method, then:
Assay 1: MEK-1 Enzyme Assay (LANCE-HTRF)
Inhibition of human MEK1 kinase activity was monitored with a homogenous, fluorescence-based assay. The assay uses time resolved fluorescence resonance energy transfer to probe for phosphorylation of ERK1 by MEK1. The detailed procedure is described in the following:
Constititutively active MEK-1 EE (150 ng/well) and ERK-2K52A (110 ng/well) were incubated in black, 384 well Optiplates (Perkin Elmer) for 1.5 hrs at room temperature, in the presence of increasing concentrations of inhibitors. The total reaction volume was 50 ul. The inhibitors were serial diluted in kinase buffer (9 uM ATP, 50 mM Tris-Hcl pH 8.0, 10 mM MgCl2, 1 mM DTT and 100 uM Na3VO4), to a final concentration of 1% DMSO. At the end of the incubation, the enzyme reaction was quenched by adding 50 ul of assay buffer containing 50 mM Tris-Hcl, 50 mM EDTA, 0.1% BSA and a mixture of 1.25 ug/mL europium labeled anti-phosphotyrosine mAb (Perkin Elmer) and 5 ug/mL of allophycocyanin labeled anti-GST antibody (CIS-US). Plates were agitated on a plate shaker for 30 minutes and the phosphorylation of the ERK-2K52A substrate was measured by homogeneous time resolved fluorescence (HTRF) at 340 nm excitation and […] emission filters on the VICTOR V fluorescence plate reader. Phosphorylation is expressed as a ratio of 665 nM signal×10,000/615 nM signal. To assess the inhibitory potential of the compounds, IC50-values were determined.
(In general: TR-FRET usually uses a lanthanide donor and a delayed reading to cut background.)

The test system of the next assay is Murine colon C26 cells. The assay is described as follows: Tumor Cell Proliferation Assay (ATP Lite), C26. The class given is cell-based. The following applies: Mus musculus, 96 h, 4 days, ATPlite. The method, then:
(§1) Assay 2: Tumor Cell Proliferation Assays (ATP Lite)
(§2) Murine colon C26 (1500 cells/well), human melanoma A375 (2000 cells/well), or human pancreatic MiaPaCa-2 cells (2000 cells/well) were plated in white, 96 well plates (Corning) in growth media (DMEM with 10% fetal bovine serum, 2 mM glutamine for C26 and MiaPaCa-2, and RPMI with 10% fetal bovine serum, 2 mM glutamine for A375) and cultured overnight at 37° C. in a humidified, 5% CO2 incubator. Inhibitors were serially diluted in 100% DMSO and subsequently added to the cells, in growth media, to reach a final concentration of 0.25% DMSO. The cells were incubated for 4 days in the presence of the test compounds and the proliferation was quantitated using the ATPlite cell proliferation kit (Packard).
For orientation: In ATP-based viability assays light output follows the ATP content of the culture.

The subject of assay [1] is human melanoma A375 cells. The assay is described as follows: Tumor Cell Proliferation Assay (ATP Lite), A375. It is filed as cell-based. The settings on record: A-375, 96 h, 4 days, ATPlite. The method, then: as §1, §2
The subject of assay [2] is human pancreatic MiaPaCa-2 cells. The assay is described as follows: Tumor Cell Proliferation Assay (ATP Lite), MiaPaCa-2. The class given is cell-based. The settings on record: MIA PaCa-2, 96 h, 4 days, ATPlite, read-out: MiaPaCa2 cell proliferation IC50. The method, then:
as §1, §2

Chain of human MEK1 (Q02750 whole entry S218E/S222E): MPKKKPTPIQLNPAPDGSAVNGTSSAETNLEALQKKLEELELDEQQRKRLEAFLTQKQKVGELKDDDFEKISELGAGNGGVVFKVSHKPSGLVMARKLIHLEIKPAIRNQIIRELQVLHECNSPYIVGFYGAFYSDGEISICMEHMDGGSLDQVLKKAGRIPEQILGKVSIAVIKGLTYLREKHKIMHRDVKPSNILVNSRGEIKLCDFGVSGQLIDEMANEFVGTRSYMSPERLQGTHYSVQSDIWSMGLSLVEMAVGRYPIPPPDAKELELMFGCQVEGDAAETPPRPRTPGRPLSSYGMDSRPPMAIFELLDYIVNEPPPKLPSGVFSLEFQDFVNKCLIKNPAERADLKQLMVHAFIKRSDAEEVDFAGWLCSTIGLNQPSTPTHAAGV

With `CSc1nnc(-c2ccncc2Nc2ccc(I)cc2F)o1` [Example 5, (2-Fluoro-4-iodo-phenyl)-[4-(5-methylsulfanyl-[1,3,4]oxadiazol-2-yl)-pyridin-3-yl]-amine], the IC50 (at human MEK1; with Murine colon C26 cells; in assay [1]; in assay [2]) was no more than 3000 nM in each case.
As to `O=C(O)CNc1nnc(-c2ccncc2Nc2ccc(I)cc2F)o1` [Example 45, {5-[3-(2-Fluoro-4-iodo-phenylamino)-pyridin-4-yl]-[1,3,4]oxadiazol-2-ylamino}-acetic acid], the IC50 is no more than 3000 nM on human MEK1, 3000 to 25000 nM in the assay with Murine colon C26 cells, no more than 3000 nM in assay [1] and 3000 to 25000 nM in assay [2].
On to `CCOC(=O)c1nnc(-c2ccncc2Nc2ccc(I)cc2F)o1` [Example 39, 5-[3-(2-Fluoro-4-iodo-phenylamino)-pyridin-4-yl]-[1,3,4]oxadiazole-2-carboxylic acid ethyl ester], for which the IC50 at human MEK1 was no more than 3000 nM; with Murine colon C26 cells it was greater than 25000 nM; in assay [1] it was no more than 3000 nM; in assay [2] it was greater than 25000 nM.
Take `NC(=O)CNc1nnc(-c2ccncc2Nc2ccc(I)cc2F)o1` [Example 46, 2-{5-[3-(2-Fluoro-4-iodo-phenylamino)-pyridin-4-yl]-[1,3,4]oxadiazol-2-ylamino}-acetamide]: the IC50 (against human MEK1; in the assay with Murine colon C26 cells; in assay [1]; in assay [2]) was no more than 3000 nM each time.
As for `OCc1nnc(-c2ccncc2Nc2ccc(I)cc2F)[nH]1` [Example 32, {5-[3-(2-Fluoro-4-iodo-phenylamino)-pyridin-4-yl]-4H-[1,2,4]triazol-3-yl}-methanol], the IC50 (at human MEK1; with Murine colon C26 cells; in assay [1]; in assay [2]) was no more than 3000 nM in each case.
Consider `CN(C)CCNc1nnc(-c2ccncc2Nc2ccc(I)cc2F)o1` [Example 22, N-{5-[3-(2-Fluoro-4-iodo-phenylamino)-pyridin-4-yl]-[1,3,4]oxadiazol-2-yl}-N′,N′-dimethyl-ethane-1,2-diamine], for which the IC50 (against human MEK1; in the assay on Murine colon C26 cells; in assay [1]; in assay [2]) was no more than 3000 nM throughout.
For the compound `Cn1c(-c2ccncc2Nc2ccc(I)cc2F)n[nH]c1=O` [Example 55, 5-[3-(2-Fluoro-4-iodo-phenylamino)-pyridin-4-yl]-4-methyl-2,4-dihydro-[1,2,4]triazol-3-one], the IC50 (at human MEK1; with Murine colon C26 cells; in assay [1]; in assay [2]) was no more than 3000 nM throughout.
As for `CC(=O)Nc1nnc(-c2ccncc2Nc2ccc(I)cc2F)o1` [Example 21, N-{5-[3-(2-Fluoro-4-iodo-phenylamino)-pyridin-4-yl]-[1,3,4]oxadiazol-2-yl}-acetamide], the IC50 (against human MEK1; with Murine colon C26 cells; in assay [1]; in assay [2]) was no more than 3000 nM each time.
Turning to `CNc1nnc(-c2ccncc2Nc2ccc(I)cc2F)o1` [Example 16, (2-Fluoro-4-iodo-phenyl)-[4-(5-methylamino-[1,3,4]oxadiazol-2-yl)-pyridin-3-yl]-amine], the IC50 (against human MEK1; with Murine colon C26 cells; in assay [1]; in assay [2]) was no more than 3000 nM in each case.
`CN(C)C(=O)CNc1nnc(-c2ccncc2Nc2ccc(I)cc2F)o1` [Example 47, 2-{5-[3-(2-Fluoro-4-iodo-phenylamino)-pyridin-4-yl]-[1,3,4]oxadiazol-2-ylamino}-N,N-dimethyl-acetamide]: the IC50 (on human MEK1; with Murine colon C26 cells; in assay [1]; in assay [2]) was no more than 3000 nM throughout.
Regarding `CCOC(=O)C(C)Nc1nnc(-c2ccncc2Nc2ccc(I)cc2F)o1` (stereo not shown) [Example 52, 2-{5-[3-(2-Fluoro-4-iodo-phenylamino)-pyridin-4-yl]-[1,3,4]oxadiazol-2-ylamino}-propionic acid ethyl ester], the IC50 (at human MEK1; in the assay on Murine colon C26 cells; in assay [1]; in assay [2]) was no more than 3000 nM in each case.
Regarding `Nc1nnc(-c2cc[n+]([O-])cc2Nc2ccc(I)cc2F)o1` [Example 27, [4-(5-Amino-[1,3,4]oxadiazol-2-yl)-1-oxy-pyridin-3-yl]-(2-fluoro-4-iodo-phenyl)-amine], the IC50 (against human MEK1; in the assay with Murine colon C26 cells; in assay [1]; in assay [2]) was no more than 3000 nM in each case.
Take `Fc1cc(I)ccc1Nc1cnccc1C1NNC(=S)N1CCN1CCOCC1` (stereo not shown) [Example 9, 5-[3-(2-Fluoro-4-iodo-phenylamino)-pyridin-4-yl]-4-(2-morpholin-4-yl-ethyl)-[1,2,4]triazolidine-3-thione]: the IC50 against human MEK1 is 3000 to 25000 nM; with Murine colon C26 cells, no more than 3000 nM; in assay [1] it was no more than 3000 nM; in assay [2] it was no more than 3000 nM.
For the compound `CC(Nc1nnc(-c2ccncc2Nc2ccc(I)cc2F)o1)C(=O)O` (stereo not shown) [Example 53, 2-{5-[3-(2-Fluoro-4-iodo-phenylamino)-pyridin-4-yl]-[1,3,4]oxadiazol-2-ylamino}-propionic acid], the IC50 is no more than 3000 nM against human MEK1, no more than 3000 nM in the assay with Murine colon C26 cells, no more than 3000 nM in assay [1] and 3000 to 25000 nM in assay [2].
On to `C[Si](C)(C)c1[nH]nnc1-c1ccncc1Nc1ccc(I)cc1F` [Example 63, N-(2-fluoro-4-iodophenyl)-4-[5-(trimethylsilyl)-1H-1,2,3-triazol-4-yl]pyridin-3-amine], for which the IC50 (on human MEK1; in the assay on Murine colon C26 cells; in assay [1]; in assay [2]) was no more than 3000 nM in each case.
As to `CCOC(=O)CNC(=O)Nc1nnc(-c2ccncc2Nc2ccc(I)cc2F)o1` [Example 17, (3-{5-[3-(2-Fluoro-4-iodo-phenylamino)-pyridin-4-yl]-[1,3,4]oxadiazol-2-yl}-ureido)-acetic acid ethylester], the IC50 on human MEK1 is no more than 3000 nM; with Murine colon C26 cells, greater than 25000 nM; in assay [1], 3000 to 25000 nM; in assay [2] it was 3000 to 25000 nM.
For `Cc1cc(I)ccc1Nc1cnccc1-c1nnc(N)o1` [Example 29, [4-(5-Amino-[1,3,4]oxadiazol-2-yl)-pyridin-3-yl]-(4-iodo-2-methyl-phenyl)-amine], the IC50 (at human MEK1; in the assay with Murine colon C26 cells; in assay [1]; in assay [2]) was no more than 3000 nM in each case.
Take `Nc1nnc(-c2ccncc2Nc2ccc(I)cc2F)[nH]1` [Example 41, [4-(5-Amino-4H-[1,2,4]triazol-3-yl)-pyridin-3-yl]-(2-fluoro-4-iodo-phenyl)-amine]: the IC50 (at human MEK1; with Murine colon C26 cells; in assay [1]; in assay [2]) was no more than 3000 nM each time.
On to `CNc1nnc(-c2ccncc2Nc2ccc(I)cc2F)s1` [Example 7, (2-Fluoro-4-iodo-phenyl)-[4-(5-methylamino-[1,3,4]thiadiazol-2-yl)-pyridin-3-yl]-amine], for which the IC50 (on human MEK1; in the assay with Murine colon C26 cells; in assay [1]; in assay [2]) was no more than 3000 nM each time.
In the case of `Fc1cc(I)ccc1Nc1cnccc1-c1ccn[nH]1` [Example 61, (2-Fluoro-4-iodo-phenyl)-[4-(2H-pyrazol-3-yl)-pyridin-3-yl]-amine], the IC50 against human MEK1 was no more than 3000 nM; in the assay on Murine colon C26 cells, 3000 to 25000 nM; in assay [1], no more than 3000 nM; in assay [2], no more than 3000 nM.
In the case of `Fc1cc(I)ccc1Nc1cnccc1-c1ncon1` [Example 56, (2-Fluoro-4-iodo-phenyl)-(4-[1,2,4]oxadiazol-3-yl-pyridin-3-yl)-amine], the IC50 against human MEK1 was no more than 3000 nM; in the assay with Murine colon C26 cells, greater than 25000 nM; in assay [1], 3000 to 25000 nM; in assay [2], 3000 to 25000 nM.
Take `OCCNc1nnc(-c2ccncc2Nc2ccc(I)cc2F)o1` [Example 44, 2-{5-[3-(2-Fluoro-4-iodo-phenylamino)-pyridin-4-yl]-[1,3,4]oxadiazol-2-ylamino}-ethanol]: the IC50 (at human MEK1; with Murine colon C26 cells; in assay [1]; in assay [2]) was no more than 3000 nM each time.

For the origin of these results see patent publication US8076486B2, “Heteroaryl-substituted arylaminopyridine derivatives as MEK inhibitors” (Merck Serono S.A., priority 2006, dated 2011).
